Tested on: MV-4-11 cells
Experiment: Gene expression microarray analysis (Affymetrix PrimeView) and GSEA
Assay type: cell-based, human
Design: RFU PODN (11730768_x_at) / Fold change /veh PODN (11730768_x_at) / RFU LINC00158 (11744669_a_at) / Fold change /veh LINC00158 (11744669_a_at) / RFU DUSP10 (11751237_a_at) / Fold change /veh DUSP10 (11751237_a_at) / RFU ID3 (11757404_x_at) / Fold change /veh ID3 (11757404_x_at) / RFU PLEKHG5 (11737974_s_at) / Fold change /veh PLEKHG5 (11737974_s_at) / RFU LRRC4B (11730491_at) / Fold change /veh LRRC4B (11730491_at) / RFU GIMAP4 (11747438_a_at) / Fold change /veh GIMAP4 (11747438_a_at) / RFU KRT8 (11758183_x_at) / Fold change /veh KRT8 (11758183_x_at) / RFU CNN1 (11734310_a_at) / Fold change /veh CNN1 (11734310_a_at) / RFU VPS37D (11726825_at) / Fold change /veh VPS37D (11726825_at) / RFU C10orf10 (11716522_x_at) / Fold change /veh C10orf10 (11716522_x_at) / RFU KIR2DL2 /// KIR2DL4 /// KIR2DL5A /// KIR2DL5B /// KIR2DS1 /// KIR2DS2 /// KIR2DS3 /// KIR2DS4 /// KIR3DL3 /// KIR3DL3 /// KIR3DS1 (11738374_at) / Fold change /veh KIR2DL2 /// KIR2DL4 /// KIR2DL5A /// KIR2DL5B /// KIR2DS1 /// KIR2DS2 /// KIR2DS3 /// KIR2DS4 /// KIR3DL3 /// KIR3DL3 /// KIR3DS1 (11738374_at) / RFU C1QL1 (11718748_at) / Fold change /veh C1QL1 (11718748_at) / RFU TMPRSS4 (11747572_a_at) / Fold change /veh TMPRSS4 (11747572_a_at) / RFU HAMP (11756126_x_at) / Fold change /veh HAMP (11756126_x_at) / RFU RNFT2 (11725882_a_at) / Fold change /veh RNFT2 (11725882_a_at) / RFU NR4A2 (11747474_a_at) / Fold change /veh NR4A2 (11747474_a_at) / RFU ABCC12 (11746883_a_at) / Fold change /veh ABCC12 (11746883_a_at) / RFU TMEM136 (11760407_x_at) / Fold change /veh TMEM136 (11760407_x_at) / RFU CLDN22 /// WWC2 (11732394_at) / Fold change /veh CLDN22 /// WWC2 (11732394_at) / RFU HLA-DPB1 (11760878_x_at) / Fold change /veh HLA-DPB1 (11760878_x_at) / RFU SPINT1 (11716480_a_at) / Fold change /veh SPINT1 (11716480_a_at) / RFU GAP43 (11754022_s_at) / Fold change /veh GAP43 (11754022_s_at) / RFU A4GNT (11735810_at) / Fold change /veh A4GNT (11735810_at) / RFU PRB3 (11715151_x_at) / Fold change /veh PRB3 (11715151_x_at) / RFU TUBB4B (11761932_at) / Fold change /veh TUBB4B (11761932_at) / RFU CAPN14 (11732068_a_at) / Fold change /veh CAPN14 (11732068_a_at) / RFU TMCC2 (11721928_a_at) / Fold change /veh TMCC2 (11721928_a_at) / RFU IRGQ (11745062_a_at) / Fold change /veh IRGQ (11745062_a_at) / RFU FAM174B (11720279_a_at) / Fold change /veh FAM174B (11720279_a_at) / RFU TMPRSS4 (11748680_a_at) / Fold change /veh TMPRSS4 (11748680_a_at) / RFU FAM212B (11763350_a_at) / Fold change /veh FAM212B (11763350_a_at) / RFU PLEKHG5 (11743358_a_at) / Fold change /veh PLEKHG5 (11743358_a_at) / RFU ZSCAN30 (11745921_a_at) / Fold change /veh ZSCAN30 (11745921_a_at) / RFU CMKLR1 (11741424_a_at) / Fold change /veh CMKLR1 (11741424_a_at) / RFU LOC101060620 /// MAPK8IP1 (11723275_at) / Fold change /veh LOC101060620 /// MAPK8IP1 (11723275_at) / RFU SPTSSB (11747773_x_at) / Fold change /veh SPTSSB (11747773_x_at) / RFU PRSS12 (11739890_at) / Fold change /veh PRSS12 (11739890_at) / RFU BIN1 (11741810_x_at) / Fold change /veh BIN1 (11741810_x_at) / RFU WNT11 (11732464_a_at) / Fold change /veh WNT11 (11732464_a_at) / RFU C10orf10 (11716521_a_at) / Fold change /veh C10orf10 (11716521_a_at) / RFU C5orf56 (11738089_at) / Fold change /veh C5orf56 (11738089_at) / RFU CYB561 (11721691_x_at) / Fold change /veh CYB561 (11721691_x_at) / RFU ANKRD19P (11752326_a_at) / Fold change /veh ANKRD19P (11752326_a_at) / RFU OR2T12 /// OR2T33 /// OR2T8 (11738714_s_at) / Fold change /veh OR2T12 /// OR2T33 /// OR2T8 (11738714_s_at) / RFU VCAN (11748164_a_at) / Fold change /veh VCAN (11748164_a_at) / RFU JSRP1 (11732532_at) / Fold change /veh JSRP1 (11732532_at) / RFU KRTAP10-11 (11738290_x_at) / Fold change /veh KRTAP10-11 (11738290_x_at) / RFU MYO3A (11730013_a_at) / Fold change /veh MYO3A (11730013_a_at) / RFU EBF3 (11725865_a_at) / Fold change /veh EBF3 (11725865_a_at) / RFU CAMK2N1 (11719241_x_at) / Fold change /veh CAMK2N1 (11719241_x_at) / RFU C5orf56 (11738088_a_at) / Fold change /veh C5orf56 (11738088_a_at) / RFU OLFML3 (11715873_a_at) / Fold change /veh OLFML3 (11715873_a_at) / RFU LOC100653217 /// NTM (11731650_a_at) / Fold change /veh LOC100653217 /// NTM (11731650_a_at) / RFU MAPK11 (11762145_a_at) / Fold change /veh MAPK11 (11762145_a_at) / RFU FIZ1 (11724087_x_at) / Fold change /veh FIZ1 (11724087_x_at) / RFU OASL (11726364_x_at) / Fold change /veh OASL (11726364_x_at) / RFU SOX15 (11748057_x_at) / Fold change /veh SOX15 (11748057_x_at) / RFU CD79A (11719716_a_at) / Fold change /veh CD79A (11719716_a_at) / RFU HIST1H1D (11736915_at) / Fold change /veh HIST1H1D (11736915_at) / RFU CASKIN2 (11723855_a_at) / Fold change /veh CASKIN2 (11723855_a_at) / RFU LOC730098 (11760151_x_at) / Fold change /veh LOC730098 (11760151_x_at) / RFU OR4N2 (11742367_at) / Fold change /veh OR4N2 (11742367_at) / RFU PRRT2 (11749266_a_at) / Fold change /veh PRRT2 (11749266_a_at) / RFU SNX32 (11753110_a_at) / Fold change /veh SNX32 (11753110_a_at) / RFU CDHR5 (11726645_a_at) / Fold change /veh CDHR5 (11726645_a_at) / RFU RCAN1 (11760418_a_at) / Fold change /veh RCAN1 (11760418_a_at) / RFU FAM167A (11723789_a_at) / Fold change /veh FAM167A (11723789_a_at) / RFU FAM26E (11764081_at) / Fold change /veh FAM26E (11764081_at) / RFU ISYNA1 (11749810_s_at) / Fold change /veh ISYNA1 (11749810_s_at) / RFU ACY1 (11761880_at) / Fold change /veh ACY1 (11761880_at) / RFU 11764098_at / Fold change /veh 11764098_at / RFU SAMD14 (11745864_x_at) / Fold change /veh SAMD14 (11745864_x_at) / RFU NPB (11741838_a_at) / Fold change /veh NPB (11741838_a_at) / RFU TMPRSS6 (11731388_a_at) / Fold change /veh TMPRSS6 (11731388_a_at) / RFU KRTAP10-2 (11738614_at) / Fold change /veh KRTAP10-2 (11738614_at) / RFU ARHGAP8 /// PRR5-ARHGAP8 (11727945_x_at) / Fold change /veh ARHGAP8 /// PRR5-ARHGAP8 (11727945_x_at) / RFU KRTAP5-7 /// NADSYN1 (11734609_at) / Fold change /veh KRTAP5-7 /// NADSYN1 (11734609_at) / RFU RASL12 (11751679_a_at) / Fold change /veh RASL12 (11751679_a_at) / RFU CDKN2B (11736163_a_at) / Fold change /veh CDKN2B (11736163_a_at) / RFU PRF1 (11729649_at) / Fold change /veh PRF1 (11729649_at) / RFU, ZNF638 /// ZNF638-IT1 / Fold change vs veh, ZNF638 /// ZNF638-IT1 / RFU, PANK3 / Fold change vs veh, PANK3 / RFU, SH3YL1 / Fold change vs veh, SH3YL1 / RFU, ZEB2 / Fold change vs veh, ZEB2 / RFU, NRIP1 / Fold change vs veh, NRIP1 / RFU, PTTG1IP / Fold change vs veh, PTTG1IP / RFU, CAPN2 / Fold change vs veh, CAPN2 / RFU, MED14 / Fold change vs veh, MED14 / RFU, SNORA58 / Fold change vs veh, SNORA58 / RFU, C1orf63 / Fold change vs veh, C1orf63 / RFU, LRRFIP1 / Fold change vs veh, LRRFIP1 / RFU, NDUFAF7 / Fold change vs veh, NDUFAF7 / RFU, SLC12A2 / Fold change vs veh, SLC12A2 / RFU, IBTK / Fold change vs veh, IBTK / RFU, ESF1 / Fold change vs veh, ESF1 / Fold change vs veh, TMEM50B / RFU, TAOK1 / Fold change vs veh, TAOK1 / RFU, ACBD3 / Fold change vs veh, ACBD3 / RFU, TMA16 / Fold change vs veh, TMA16 / RFU, RWDD3 / Fold change vs veh, RWDD3 / RFU, BCAT1 / Fold change vs veh, BCAT1 / RFU, EDEM3 / Fold change vs veh, EDEM3 / RFU, TMEM33 / Fold change vs veh, TMEM33 / RFU, WDR75 / Fold change vs veh, WDR75 / RFU, AHCTF1 / Fold change vs veh, AHCTF1 / RFU, TFRC / Fold change vs veh, TFRC / RFU, ZDHHC17 / Fold change vs veh, ZDHHC17 / RFU, NOM1 / Fold change vs veh, NOM1 / RFU, ARL8B / Fold change vs veh, ARL8B / RFU, ZBTB11 / Fold change vs veh, ZBTB11 / RFU, TAMM41 / Fold change vs veh, TAMM41 / RFU, KIAA1704 /// LOC100996395 / Fold change vs veh, KIAA1704 /// LOC100996395 / RFU, ING1 / Fold change vs veh, ING1 / RFU, TRMT61B / Fold change vs veh, TRMT61B / RFU, FUBP3 / Fold change vs veh, FUBP3 / RFU, TP53 / Fold change vs veh, TP53 / RFU, TNKS2 / Fold change vs veh, TNKS2 / RFU, ZFP14 / Fold change vs veh, ZFP14 / RFU, ACTR2 / Fold change vs veh, ACTR2 / RFU, PPP3R1 / Fold change vs veh, PPP3R1 / RFU, PIK3R1 / Fold change vs veh, PIK3R1 / RFU, HNRNPA1 / Fold change vs veh, HNRNPA1 / RFU, RNF170 / Fold change vs veh, RNF170 / RFU, ZNF28 / Fold change vs veh, ZNF28 / RFU, RNGTT / Fold change vs veh, RNGTT / RFU, OGT / Fold change vs veh, OGT / RFU, BRD1 / Fold change vs veh, BRD1 / RFU, MARS / Fold change vs veh, MARS / RFU, ZNF655 / Fold change vs veh, ZNF655 / RFU, FAHD1 / Fold change vs veh, FAHD1 / RFU, BDP1 / Fold change vs veh, BDP1 / RFU, LRRCC1 / Fold change vs veh, LRRCC1 / RFU, ARID1A / Fold change vs veh, ARID1A / RFU, ZNF146 / Fold change vs veh, ZNF146 / RFU, ZNF330 / Fold change vs veh, ZNF330 / RFU, GPN3 / Fold change vs veh, GPN3 / RFU, C9orf123 / Fold change vs veh, C9orf123 / RFU, N4BP2L2 / Fold change vs veh, N4BP2L2 / RFU, ARFIP1 / Fold change vs veh, ARFIP1 / RFU, FAM179B / Fold change vs veh, FAM179B / RFU, BCL10 / Fold change vs veh, BCL10 / RFU, UHRF1BP1L / Fold change vs veh, UHRF1BP1L / RFU, BET1 / Fold change vs veh, BET1 / RFU, CNOT2 / Fold change vs veh, CNOT2 / RFU, ZNF268 / Fold change vs veh, ZNF268 / Fold change vs veh, ZNF507 / RFU, DGCR2 / Fold change vs veh, DGCR2 / RFU, WDSUB1 / Fold change vs veh, WDSUB1 / Fold change vs veh, HSP90B1 /// MIR3652 / RFU, ADSS / Fold change vs veh, ADSS / RFU, GK / Fold change vs veh, GK / RFU, ZNF148 / Fold change vs veh, ZNF148 / RFU, TAF9 / Fold change vs veh, TAF9 / RFU, SLC1A5 / Fold change vs veh, SLC1A5 / RFU, SLMO2 / Fold change vs veh, SLMO2 / RFU, ABCC4 / Fold change vs veh, ABCC4 / RFU, LOC101060439 /// RAP1B / Fold change vs veh, LOC101060439 /// RAP1B / RFU, RFX7 / Fold change vs veh, RFX7 / RFU, GTPBP10 / Fold change vs veh, GTPBP10 / RFU, CNEP1R1 / Fold change vs veh, CNEP1R1 / RFU, BIVM-ERCC5 /// ERCC5 / Fold change vs veh, BIVM-ERCC5 /// ERCC5 / RFU, ILF3 / Fold change vs veh, ILF3 / RFU 11762660_at / Fold change /veh 11762660_at / RFU VCAN (11757783_s_at) / Fold change /veh VCAN (11757783_s_at) / RFU DDX43 (11728927_at) / Fold change /veh DDX43 (11728927_at) / RFU KRT8 (11758188_x_at) / Fold change /veh KRT8 (11758188_x_at) / RFU NKD1 (11759106_at) / Fold change /veh NKD1 (11759106_at) / RFU SRD5A1 (11742802_a_at) / Fold change /veh SRD5A1 (11742802_a_at) / RFU TPSAB1 /// TPSB2 (11721975_s_at) / Fold change /veh TPSAB1 /// TPSB2 (11721975_s_at) / RFU GSTM3 (11746129_a_at) / Fold change /veh GSTM3 (11746129_a_at) / RFU IL23R (11737362_x_at) / Fold change /veh IL23R (11737362_x_at) / RFU TMEM51 (11727254_a_at) / Fold change /veh TMEM51 (11727254_a_at) / RFU PIWIL2 (11732686_x_at) / Fold change /veh PIWIL2 (11732686_x_at) / RFU ORM1 (11744905_x_at) / Fold change /veh ORM1 (11744905_x_at) / RFU CCDC152 (11743942_at) / Fold change /veh CCDC152 (11743942_at) / RFU ECM1 (11717891_a_at) / Fold change /veh ECM1 (11717891_a_at) / RFU IL23R (11748794_a_at) / Fold change /veh IL23R (11748794_a_at) / RFU TNFAIP8L3 (11732012_x_at) / Fold change /veh TNFAIP8L3 (11732012_x_at) / RFU MBOAT4 (11741988_at) / Fold change /veh MBOAT4 (11741988_at) / RFU 11764193_at / Fold change /veh 11764193_at / RFU TMEM53 (11763286_at) / Fold change /veh TMEM53 (11763286_at) / RFU MAGEB2 (11727129_at) / Fold change /veh MAGEB2 (11727129_at) / RFU TMEM200A (11744735_a_at) / Fold change /veh TMEM200A (11744735_a_at) / RFU CCDC152 (11751479_a_at) / Fold change /veh CCDC152 (11751479_a_at) / RFU FAM211A (11726209_a_at) / Fold change /veh FAM211A (11726209_a_at) / RFU RGS16 (11746705_a_at) / Fold change /veh RGS16 (11746705_a_at) / RFU VCAN (11755009_s_at) / Fold change /veh VCAN (11755009_s_at) / RFU RHOB (11743442_s_at) / Fold change /veh RHOB (11743442_s_at) / RFU RGS16 (11720943_a_at) / Fold change /veh RGS16 (11720943_a_at) / RFU RGS16 (11720944_at) / Fold change /veh RGS16 (11720944_at) / RFU, VPS4B / Fold change vs veh, VPS4B / RFU, CREB1 / Fold change vs veh, CREB1 / RFU, DNAJC13 / Fold change vs veh, DNAJC13 / RFU, GNAQ / Fold change vs veh, GNAQ / RFU, CDK5R1 / Fold change vs veh, CDK5R1 / RFU, ZRANB3 / Fold change vs veh, ZRANB3 / RFU, CUL4A / Fold change vs veh, CUL4A / RFU, CCNY / Fold change vs veh, CCNY / RFU, UFL1 / Fold change vs veh, UFL1 / RFU, COG3 / Fold change vs veh, COG3 / RFU, DIAPH2 / Fold change vs veh, DIAPH2 / RFU, SKA2 / Fold change vs veh, SKA2 / RFU, AFF3 / Fold change vs veh, AFF3 / RFU, LMF1 / Fold change vs veh, LMF1 / RFU, IPO11 / Fold change vs veh, IPO11 / RFU, DFFB / Fold change vs veh, DFFB / RFU, FOXP1 / Fold change vs veh, FOXP1 / RFU, CARD8 / Fold change vs veh, CARD8 / RFU, STRN3 / Fold change vs veh, STRN3 / RFU, ADK / Fold change vs veh, ADK / RFU, RASSF2 / Fold change vs veh, RASSF2 / RFU, WIPF1 / Fold change vs veh, WIPF1 / RFU, LARP1B / Fold change vs veh, LARP1B / RFU, RASA1 / Fold change vs veh, RASA1 / RFU, RB1 / Fold change vs veh, RB1 / RFU, PPFIA1 / Fold change vs veh, PPFIA1 / RFU, MAT2A / Fold change vs veh, MAT2A / RFU, CCT5 / Fold change vs veh, CCT5 / RFU, WDR92 / Fold change vs veh, WDR92 / RFU, CUX1 / Fold change vs veh, CUX1 / RFU, TTC7A / Fold change vs veh, TTC7A / RFU, TMEM135 / Fold change vs veh, TMEM135 / RFU, DEPTOR / Fold change vs veh, DEPTOR / RFU, CPM / Fold change vs veh, CPM / RFU, DNAJB6 / Fold change vs veh, DNAJB6 / RFU, CACNA2D3 / Fold change vs veh, CACNA2D3 / RFU, DTX4 / Fold change vs veh, DTX4 / RFU, TFCP2 / Fold change vs veh, TFCP2 / RFU, GMCL1 /// GMCL1P1 / Fold change vs veh, GMCL1 /// GMCL1P1 / RFU, AEBP2 / Fold change vs veh, AEBP2 / RFU, SNHG1 /// SNORD22 /// SNORD25 /// SNORD26 /// SNORD27 /// SNORD28 /// SNORD29 /// SNORD31 / Fold change vs veh, SNHG1 /// SNORD22 /// SNORD25 /// SNORD26 /// SNORD27 /// SNORD28 /// SNORD29 /// SNORD31 / Fold change (Aza/veh), C12orf56 (ProbeSet 11735607_a_at) / Fold change (ACY-1035/veh), C12orf56 (ProbeSet 11735607_a_at) / Fold change (Aza/veh), FGFR1OP (ProbeSet 11751329_s_at) / Fold change (ACY-1035/veh), FGFR1OP (ProbeSet 11751329_s_at) / Fold change (Aza/veh), VPS36 (ProbeSet 11739960_a_at) / Fold change (ACY-1035/veh), VPS36 (ProbeSet 11739960_a_at) / RFU SYPL1 (11715823_x_at) / Fold change /veh SYPL1 (11715823_x_at) / RFU IGFBP7 (11715501_s_at) / Fold change /veh IGFBP7 (11715501_s_at) / RFU REEP3 (11722064_at) / Fold change /veh REEP3 (11722064_at) / RFU IGLL1 (11728026_x_at) / Fold change /veh IGLL1 (11728026_x_at): dose or concentration left out as unconfirmed
Details: ProbeSet 11730501_a_at; LIST D

Nc1ccc(-c2cccs2)cc1NC(=O)c1ccc2c(c1)cc(C1CC1)n2CCN1CCOCC1 [ACY-1035]
Fold change vs veh, CACNA2D3: 1.05

From publication PMC5218480 (PLoS ONE, 2017)
